Earlier results in patent publication USRE30496E, “Tripeptide derivatives with central nervous system activity and preparation thereof” (Ayerst, McKenna & Harrison, Ltd., priority 1979, dated 1981).

Assays:
effects of oxotremorine = settings: literature (Plotnikoff 1972)
[1] = in vivo
[2] = test system: behavioral effects of (3,4-dihydroxyphenyl)-L-alanine (L-DOPA); settings: literature (Plotnikoff 1971; Friedman 1973)
mice = settings: literature (Plotnikoff 1973)
monkeys = settings: literature (Plotnikoff 1973)

H-L-prolyl-L-leucyl-glycinamide [H--Pro--Leu--Gly--NH2]
antagonism of the effects of oxotremorine (effects of oxotremorine): antagonizes the effects of oxotremorine
first step in the inactivation [1]: proteolytic cleavage of the Pro-Leu bond
potentiation of the behavioral effects of L-DOPA [2]: potentiates the behavioral effects
reversal of the sedative effects of deserpidine (mice): reverses the sedative effects of deserpidine
reversal of the sedative effects of deserpidine (monkeys): reverses the sedative effects of deserpidine
